The record followed here is publication PMC9822133, “Design, Synthesis and Antiproliferative Evaluation of Bis-Indole Derivatives with a Phenyl Linker: Focus on Autophagy” (Molecules, 2022).

In test [1] the test system is BLM. The experiment in a line: MTT screening assay, BLM. It is filed as cell-based. To be noted: Homo sapiens, 72 h incubation.
In test [2] the test system is MCF-7. Description: MTT screening assay, MCF-7. It is filed as cell-based. The settings on record: Homo sapiens, MCF7, 72 h incubation. The source says:
The ability of newly synthesized indole phytoalexins to suppress cell proliferation was screened in vitro on eight cancer cell lines including human colorectal carcinoma (Caco-2 and HCT116), human cervical cancer (HeLa), human breast adenocarcinoma (MCF-7, MDA-MB-231), human alveolar adenocarcinoma (A549) and human leukemic T cell lymphoma (Jurkat), and two non-cancer cell lines (MCF-10A, Cos-7).
The cell lines used for this study were Caco-2 (human colorectal adenocarcinoma cell line, American Type Culture Collection, Manassas, VA, USA (ATCC)), HCT116 (human colorectal carcinoma cells European Collection of Authenticated Cell Cultures, Salisbury, UK (ECACC)), HeLa (human cervical tumor cells, ECACC), MCF-7 (human breast tumor cells, ECACC), MDA-MB-231 (human breast tumor cells, ATCC), A549 (human lung carcinoma cells, ATCC), BLM (human melanoma lung metastases, a gift from prof. K. Smetana, Institute of Anatomy, Charles University in Prague), Jurkat (human leukemia cell line, ECACC), Cos-7 (immortalized monkey kidney fibroblasts, ATCC) and MCF-10A (human mammary epithelial cells, ATCC). Caco-2, MCF-7, BLM, Cos-7 and A549 cells were cultured in Dulbecco’s Modified Eagle’s Medium (DMEM) with high glucose and sodium pyruvate (GE Healthcare, Piscataway, NJ, USA); HCT116 lines, HeLa, MDA-MB-231 and Jurkat were cultured in RPMI-1640 medium; and MCF10A cells were cultured in high glucose DMEM/F12 (Dulbecco’s Modified Eagle’s Medium F12). The media were enriched with 10% fetal bovine serum (FBS) and a 1% solution of a mixture of antibiotics and antimycotics 1× HyClone™ (GE Healthcare, Chicago, IL, USA). DMEM/F12 medium was supplemented with epidermal growth factor (EGF) (20 ng/mL final), hydrocortisone (0.5 μg/mL final) and insulin (10 μg/mL final) (Sigma-Aldrich Chemie, Steinheim, Germany). The cells were placed in an incubator at 37 °C with humidified air containing 5% CO2.
The MTT assay is a colorimetric method used to quantify the metabolic activity of cells. MTT (3-(4,5-di-methylthiazol-2-yl)2,5-diphenyltetrazolium bromide) (Sigma-Aldrich Chemie, Steinheim, Germany) is reduced by oxidoreductases in the cytosol of cells to light-absorbing formazan, the presence of which can be measured spectrophotometrically and determines the half-maximal inhibitory concentration (IC50). A549 cells were seeded in […] culture plates at a density of 5 × 10^3 per well. […]
We also incubated the cells with chloroquine at concentrations of 5–20 µM, which was added 1 h before the addition of the test substance, and cisplatin at concentrations of 3–10 µM. […] After 24 h, the absorbance was measured at a wavelength of 540 nm using an automated Cytation™ 3 Cell Imaging Multi-Mode Reader (Biotek, Winooski, VT, USA). […]

Test [3] deals with Phospho-AMPKα. Description: Western blot, phospho-AMPK. Format: cell-based, human. To be noted: A549, 24, 48, 72 h. The text has this: ULK1/AMPK. ULK1 is a serine/threonine protein kinase. The ULK1 complex controls the formation of the phagophore, the initial autophagosomal precursor membrane structure. Upon induction of autophagy, the ULK1 complex translocates to autophagy initiation sites and regulates the recruitment of a second kinase complex, VPS34. ULK1 can be inhibited by phosphorylation by mammalian target of rapamycin complex 1 (mTORC1) or activated after AMP-activated protein kinase (AMPK) phosphorylation. Under conditions of nutrient deficiency, AMPK is activated, which directly activates ULK1. The kinase is phosphorylated, i.e., activated by an increased AMP/ATP ratio due to cellular and environmental stress. AMPK also inactivates mTORC1 and thus blocks its inhibitory action on autophagy activation.
A549 cells were seeded on Petri dishes (55 cm^2) at a density of 1 × 10^6 and allowed to culture in the medium. After 24 h, the test substance was added, and the cells were incubated for 24, 48 and 72 h. […] After lysis, the cells were sonicated, and the protein concentration in the samples was quantified using the Pierce® BCA Protein Assay Kit (Thermo Scientific, Rockford, IL, USA) and measured by an automated Cytation™ 3 Cell Imaging Multi-Mode Reader (Biotek) at a wavelength of 570 nm. […]
For orientation: Immunoblotting shows a protein as a band on a membrane.

Structures are written as SMILES. A value given as a limit tells only on which side of the number the result lay.

Consider `CC(C)(C)OC(=O)n1cc(CNC(=O)Nc2ccc(NC(=O)NCc3cn(C(=O)OC(C)(C)C)c4ccccc34)cc2)c2ccccc21` [Compound 49, N,N′-(1,4-phenylene)bis{N′-[1-(tert-butoxycarbonyl)indol-3-yl]methyl (urea)}], for which the IC50 in test [1] and in test [2] was greater than 100 µM throughout. Moreover, in test [3], the “phosphorylated form of AMPK” value was “significant increase”.

Usually IC50 stands for the point on the concentration scale where inhibition reaches its midpoint. Low readings indicate inhibition by little substance, high ones a need for much substance.
